For data set [1] the following is noted: cited from earlier work. The source says:
The genetic circuit is based on a split intein and σ factor to which the peptide library is fused. This could be used to screen/select libraries of linear peptides or protein domains for binding to the target. Here, we decided to use modified peptides because they have advantages as pharmaceuticals, including more compact structures that are resistant to proteolysis and permeate the mammalian cell membrane. Modified peptides have been approved for the treatment of cancer, inflammation, and infection and increasing numbers are entering all phases of clinical development for diverse indicatio ...

Data set [2] deals with Spike RBD. The class given is cell-based, SARS-CoV-2.
For data set [3], the target named is SARS-CoV-2 Spike RBD (RBD296-531) (Severe acute respiratory syndrome coronavirus 2, UniProt P0DTC2). As to the kind of experiment: biochemical. The class given is binding.

Where a SMILES comes first, the peptide text is derived from it.

Data on three compounds can be found in publication PMC8566587, “Selection for constrained peptides that bind to a single target protein” (Nature Communications, 2021).

As for Enfuvirtide, the “proteolysis (in words)” value in data set [1] is recorded as “suffers from rapid proteolysis”.
On to VCKYGEWCEIVEI [Pap2c_1], for which, in data set [2], the “fluorescence output (in words)” value is recorded as “strong fluorescence output” and the “specificity for Spike RBD as compared to Mdm2*” value was found to be 14 fold.
The Kd is the equilibrium constant for the complex coming apart. In data set [3], `CC[C@H](C)[C@H](NC(=O)[C@H]1NC(=O)[C@H](C(C)C)NC(=O)[C@H]([C@@H](C)CC)NC(=O)[C@H](CCC(=O)O)NC(=O)[C@@H](NC(=O)[C@H](Cc2c[nH]c3ccccc23)NC(=O)[C@H](CCC(=O)O)NC(=O)CNC(=O)[C@H](Cc2ccc(O)cc2)NC(=O)[C@H](CCCCN)NC(=O)[C@H](CS)NC(=O)[C@@H](NC(=O)CN)C(C)C)CSC1CC(=O)O)C(=O)O` (stereo partly shown) [AMK-1057] (HELM PEPTIDE1{G.V.C.K.Y.G.E.W.C.E.I.V.[O=C(O)CC([C@H](N[*:1])C(=O)[*:2])[*:3]].I}$PEPTIDE1,PEPTIDE1,9:R3-13:R3$$$V2.0) yielded a Kd of 990 ± 5 nM.
